{"source": "patent US20190021988A1", "about": "“ENHANCED TRANSDERMAL DELIVERY OF ACTIVE AGENTS” (priority 2016, published 2019)", "origin": "cited, not measured here", "system": "desmosome-induced tight junctions between corneocytes", "data": [{"substance": "TD-1: skin penetrating peptide with the amino acid sequence ACSSSPSKHCG, disclosed in WO2007/035474", "values": [{"measurement": "time until cell gaps are restored after treatment", "setting": "after treatment", "result": 1, "unit": "h"}, {"measurement": "space between cells after topical application", "setting": "change from about 30 nm, in 30 minutes from topical application", "result": "about 466 nm"}]}]}
